The numbers were not newly measured in patent publication US10246411B2, “(Z)-3,4,5-trimethoxystyrylbenzenesulfonamides as potential anticancer agents” (COUNCIL OF SCIENTIFIC & INDUSTRIAL RESEARCH, priority 2014, dated 2019), which cites them from elsewhere.

One data set relates to tubulin. As to conditions: background, literature; cited from earlier work.
The test system of data set [1] is VCR-resistant P388 cell lines. As to conditions: two kinds of VCR-resistant P388 cell lines; background, literature; cited from earlier work.

Molecules are shown by their SMILES.

Take `COc1cc(/C=C\c2ccc(OC)c(N)c2)cc(OC)c1` [(Z)-5-(3,5-dimethoxystyryl)-2-methoxyaniline]: in the data set with tubulin, the “inhibition of tubulin polymerization” value is on record as “five times stronger than CA-4”.

For the compound `COc1ccc(/C=C\c2cc(OC)c(OC)c(OC)c2)cc1O` [CA-4, Combretastatin A-4], in the data set with tubulin, the “inhibition of tubulin polymerization” value is reported as “potent inhibitor of tubulin polymerization”. As to `COc1ccc(S(=O)(=O)Nc2cccnc2Nc2ccc(O)cc2)cc1` [E7010, N-[2-[(4-hydroxyphenyl)amino]-3-pyridinyl]-4-methoxybenzenesulfonamide], in data set [1], the “activity against VCR-resistant P388 cell lines” value is listed as “active”. For the same compound, the “inhibition of tubulin polymerization” value with tubulin was “dose-dependent inhibition of tubulin polymerization”.
